These results are taken from patent US10894817B2, “Fatty acid modified urocortin-2 analogs for the treatment of diabetes and chronic kidney disease” (priority 2016, dated 2021).

SMILES strings stand for the structures. Starred links: 1 amine or outer side, 2 acyl side, 3 side chain; linkers in the order of their positions; H or OH if unused. Residues, ends and D or L forms follow the SMILES beside them. Groups on a side chain read outwards from the residue. *: point of attachment. γGlu = O=C(O)[C@H](CCC(=O)[*:2])N[*:1]; Palmitoyl = CCCCCCCCCCCCCCCC(=O)*; AEEA = NCCOCCOCC(=O)O

The target in this assay is T1, human CRHR2b (Homo sapiens, UniProt Q13324).
T1 construct: expressed in transfected cells; host or cells: Chinese Hamster Ovary (CHO) cells, transient transfection
T1 sequence (Q13324 1-438 isoform Q13324-2): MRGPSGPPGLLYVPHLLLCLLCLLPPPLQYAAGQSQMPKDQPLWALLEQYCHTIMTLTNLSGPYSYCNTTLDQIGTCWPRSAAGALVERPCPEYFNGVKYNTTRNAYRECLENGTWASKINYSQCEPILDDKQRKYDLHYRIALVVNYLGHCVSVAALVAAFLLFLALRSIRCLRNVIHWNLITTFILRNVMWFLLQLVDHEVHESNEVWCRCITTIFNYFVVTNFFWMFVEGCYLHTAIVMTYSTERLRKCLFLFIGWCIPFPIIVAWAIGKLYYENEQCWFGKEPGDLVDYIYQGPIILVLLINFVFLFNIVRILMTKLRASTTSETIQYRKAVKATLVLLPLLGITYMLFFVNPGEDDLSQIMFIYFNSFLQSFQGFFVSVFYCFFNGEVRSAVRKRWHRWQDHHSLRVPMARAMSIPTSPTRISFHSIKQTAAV
As to the kind of experiment: human CRHR2b cell-based cAMP assay. Conditions: cAMP assay; Table 26, compounds of Example 9; read-out: hCRHR2b Average EC50. On the procedure: CRHR agonistic activity is measured in a cell-based cAMP assay. Serial dilutions of the test peptides are made in assay buffer containing Hank's Balanced Salt Solution (HBSS, without phenol red) supplemented with 20 mM HEPES and 0.05% lactalbumin enzymatic hydrolysate (LAH) (“assay buffer”). […] A one to three dilution of the test peptides is used in both assays. Receptor over-expressing Chinese Hamster Ovary (CHO) cell line is used for the human CRHR2b assay. […] AF011406.1). Forty-eight hours after the transfection, the cells are centrifuged to remove the culture media and resuspended in fetal bovine serum containing 5% DMSO. They are cryofrozen and stored in vials in liquid nitrogen (20×10^6 cells/ml/vial). On the day of the assay, cells are thawed and resuspended in cold 30 ml culture media supplemented with 20 mM HEPES. The cells are then centrifuged to remove the media and washed once with HBSS supplemented with 20 mM HEPES. Finally, following the last centrifugation, the cells are resuspended in assay buffer. Thirty-thousand cells are used in the human CRHR2b assay for each treatment. The cells are dispensed into Costar 96-well black polystyrene half area EIA/RIA plates (Corning Incorporated, Corning, N.Y.) followed by the addition of the diluted peptides, each at a volume of 20 μL. The agonist induced cAMP levels are detected using a HTRF cAMP Dynamic 2 kit (CisBio, Bedford, Mass.). After incubation at 37° C. for 30 min, the assay is stopped by cell lysis via the addition of 20 μL of d2-labeled cAMP and followed by 20 μL of cryptate-labeled anti-cAMP antibody, as described by the manufacturer. Cellular cAMP (as a result of agonist stimulation) competes with the d2-labeled cAMP for binding to the antibody. HTRF detection is performed on an Envision plate reader (Perkin Elmer Life and Analytical Sciences, Waltham, Mass.) by measuring ratiometric emission at 620 and 665 nm after excitation at 320 nm. The data are converted to picomoles of cAMP using a standard curve obtained from the same assay performed with varying concentrations of unlabeled cAMP. […] The data are analyzed using a Curve Fitting Tool to calculate ED50. Numeric values shown below in Table 1 represent the mean of multiple runs (number of runs shown in parentheses) following the mean value±SEM.
One may read the EC50 as the concentration that produces a half-maximal response. For the molecule `CCCCCCCCCCCCCCCC(=O)N[C@@H](CCC(=O)N[C@@H](CCC(=O)NCCCC[C@H](NC(=O)[C@H](CCC(=O)O)NC(=O)[C@H](CCCCN)NC(=O)[C@H](CCC(=O)O)NC(=O)[C@H](CCC(N)=O)NC(=O)[C@H](CCCCN)NC(=O)[C@H](CCC(=O)O)NC(=O)[C@H](CCC(N)=O)NC(=O)[C@H](CCC(=O)O)NC(=O)[C@H](CC(C)C)NC(=O)[C@H](CC(C)C)NC(=O)[C@@H](NC(=O)[C@H](CCC(N)=O)NC(=O)[C@H](CC(C)C)NC(=O)[C@H](CC(C)C)NC(=O)CNC(=O)[C@@H](NC(=O)[C@@H]1CCCN1C(=O)[C@@H](NC(=O)[C@H](CC(=O)O)NC(=O)[C@H](CC(C)C)NC(=O)[C@H](CO)NC(=O)[C@H](CC(C)C)NC(=O)[C@@H](NC(=O)[C@@H](N)[C@@H](C)CC)C(C)C)C(C)C)[C@@H](C)CC)[C@@H](C)CC)C(=O)N[C@@H](CCC(N)=O)C(=O)N[C@@H](CCC(N)=O)C(=O)N[C@@H](C)C(=O)N[C@H](C(=O)N[C@H](C(=O)N[C@@H](CC(N)=O)C(=O)N[C@@H](C)C(=O)N[C@@H](CCCNC(=N)N)C(=O)N[C@H](C(=O)N[C@@H](CC(C)C)C(=O)N[C@@H](C)C(=O)N[C@@H](CCCNC(=N)N)C(=O)N[C@H](C(N)=O)C(C)C)[C@@H](C)CC)[C@@H](C)O)[C@@H](C)O)C(=O)O)C(=O)O` [Compound 31] (H-IVLSLDVPIGLLQILLEQEKQEKEK([γGlu-γGlu-Palmitoyl])QQATTNARILARV-NH2), the EC50 was determined as 3.2 nM.
Turning to `CCCCCCCCCCCCCCCC(=O)N[C@@H](CCC(=O)NCCOCCOCC(=O)NCCCC[C@H](NC(=O)[C@H](CCC(=O)O)NC(=O)[C@H](CCCCN)NC(=O)[C@H](CCC(=O)O)NC(=O)[C@H](CCC(N)=O)NC(=O)[C@H](CCCCN)NC(=O)[C@H](CCC(=O)O)NC(=O)[C@H](CCC(N)=O)NC(=O)[C@H](CCC(=O)O)NC(=O)[C@H](CC(C)C)NC(=O)[C@H](CC(C)C)NC(=O)[C@@H](NC(=O)[C@H](CCC(N)=O)NC(=O)[C@H](CC(C)C)NC(=O)[C@H](CC(C)C)NC(=O)CNC(=O)[C@@H](NC(=O)[C@@H]1CCCN1C(=O)[C@@H](NC(=O)[C@H](CC(=O)O)NC(=O)[C@H](CC(C)C)NC(=O)[C@H](CO)NC(=O)[C@H](CC(C)C)NC(=O)[C@@H](NC(=O)[C@@H](N)[C@@H](C)CC)C(C)C)C(C)C)[C@@H](C)CC)[C@@H](C)CC)C(=O)N[C@@H](CCC(N)=O)C(=O)N[C@@H](CCC(N)=O)C(=O)N[C@@H](C)C(=O)N[C@H](C(=O)N[C@H](C(=O)N[C@@H](CC(N)=O)C(=O)N[C@@H](C)C(=O)N[C@@H](CCCNC(=N)N)C(=O)N[C@H](C(=O)N[C@@H](CC(C)C)C(=O)N[C@@H](C)C(=O)N[C@@H](CCCNC(=N)N)C(=O)N[C@H](C(N)=O)C(C)C)[C@@H](C)CC)[C@@H](C)O)[C@@H](C)O)C(=O)O` [Compound 32] (H-IVLSLDVPIGLLQILLEQEKQEKEK([AEEA-γGlu-Palmitoyl])QQATTNARILARV-NH2), the EC50 was 9.18 nM.
Turning to `CCCCCCCCCCCCCCCC(=O)N[C@@H](CCC(=O)NCCCC[C@H](NC(=O)[C@H](CCCCN)NC(=O)[C@H](CCC(=O)O)NC(=O)[C@H](CCCCN)NC(=O)[C@H](CCC(=O)O)NC(=O)[C@H](CCC(N)=O)NC(=O)[C@H](CCCCN)NC(=O)[C@H](CCC(=O)O)NC(=O)[C@H](CCC(N)=O)NC(=O)[C@H](CCC(=O)O)NC(=O)[C@H](CC(C)C)NC(=O)[C@H](CC(C)C)NC(=O)[C@@H](NC(=O)[C@H](CCC(N)=O)NC(=O)[C@H](CC(C)C)NC(=O)[C@H](CC(C)C)NC(=O)CNC(=O)[C@@H](NC(=O)[C@@H]1CCCN1C(=O)[C@@H](NC(=O)[C@H](CC(=O)O)NC(=O)[C@H](CC(C)C)NC(=O)[C@H](CO)NC(=O)[C@H](CC(C)C)NC(=O)[C@@H](NC(=O)[C@@H](N)[C@@H](C)CC)C(C)C)C(C)C)[C@@H](C)CC)[C@@H](C)CC)C(=O)N[C@@H](CCC(N)=O)C(=O)N[C@@H](C)C(=O)N[C@H](C(=O)N[C@H](C(=O)N[C@@H](CC(N)=O)C(=O)N[C@@H](C)C(=O)N[C@@H](CCCNC(=N)N)C(=O)N[C@H](C(=O)N[C@@H](CC(C)C)C(=O)N[C@@H](C)C(=O)N[C@@H](CCCNC(=N)N)C(=O)N[C@H](C(N)=O)C(C)C)[C@@H](C)CC)[C@@H](C)O)[C@@H](C)O)C(=O)O` [Compound 33] (H-IVLSLDVPIGLLQILLEQEKQEKEKK([γGlu-Palmitoyl])QATTNARILARV-NH2), the EC50 amounted to 8.68 nM.
The figure for `CCCCCCCCCCCCCCCC(=O)N[C@@H](CCC(=O)N[C@@H](CCC(=O)NCCCC[C@H](NC(=O)[C@H](CCCCN)NC(=O)[C@H](CCC(=O)O)NC(=O)[C@H](CCCCN)NC(=O)[C@H](CCC(=O)O)NC(=O)[C@H](CCC(N)=O)NC(=O)[C@H](CCCCN)NC(=O)[C@H](CCC(=O)O)NC(=O)[C@H](CCC(N)=O)NC(=O)[C@H](CCC(=O)O)NC(=O)[C@H](CC(C)C)NC(=O)[C@H](CC(C)C)NC(=O)[C@@H](NC(=O)[C@H](CCC(N)=O)NC(=O)[C@H](CC(C)C)NC(=O)[C@H](CC(C)C)NC(=O)CNC(=O)[C@@H](NC(=O)[C@@H]1CCCN1C(=O)[C@@H](NC(=O)[C@H](CC(=O)O)NC(=O)[C@H](CC(C)C)NC(=O)[C@H](CO)NC(=O)[C@H](CC(C)C)NC(=O)[C@@H](NC(=O)[C@@H](N)[C@@H](C)CC)C(C)C)C(C)C)[C@@H](C)CC)[C@@H](C)CC)C(=O)N[C@@H](CCC(N)=O)C(=O)N[C@@H](C)C(=O)N[C@H](C(=O)N[C@H](C(=O)N[C@@H](CC(N)=O)C(=O)N[C@@H](C)C(=O)N[C@@H](CCCNC(=N)N)C(=O)N[C@H](C(=O)N[C@@H](CC(C)C)C(=O)N[C@@H](C)C(=O)N[C@@H](CCCNC(=N)N)C(=O)N[C@H](C(N)=O)C(C)C)[C@@H](C)CC)[C@@H](C)O)[C@@H](C)O)C(=O)O)C(=O)O` [Compound 34] (H-IVLSLDVPIGLLQILLEQEKQEKEKK([γGlu-γGlu-Palmitoyl])QATTNARILARV-NH2) is 4.54 nM; for `CCCCCCCCCCCCCCCC(=O)N[C@@H](CCC(=O)NCCCC[C@H](NC(=O)[C@H](CCC(N)=O)NC(=O)[C@H](CCCCN)NC(=O)[C@H](CCC(=O)O)NC(=O)[C@H](CCCCN)NC(=O)[C@H](CCC(=O)O)NC(=O)[C@H](CCC(N)=O)NC(=O)[C@H](CCCCN)NC(=O)[C@H](CCC(=O)O)NC(=O)[C@H](CCC(N)=O)NC(=O)[C@H](CCC(=O)O)NC(=O)[C@H](CC(C)C)NC(=O)[C@H](CC(C)C)NC(=O)[C@@H](NC(=O)[C@H](CCC(N)=O)NC(=O)[C@H](CC(C)C)NC(=O)[C@H](CC(C)C)NC(=O)CNC(=O)[C@@H](NC(=O)[C@@H]1CCCN1C(=O)[C@@H](NC(=O)[C@H](CC(=O)O)NC(=O)[C@H](CC(C)C)NC(=O)[C@H](CO)NC(=O)[C@H](CC(C)C)NC(=O)[C@@H](NC(=O)[C@@H](N)[C@@H](C)CC)C(C)C)C(C)C)[C@@H](C)CC)[C@@H](C)CC)C(=O)N[C@@H](C)C(=O)N[C@H](C(=O)N[C@H](C(=O)N[C@@H](CC(N)=O)C(=O)N[C@@H](C)C(=O)N[C@@H](CCCNC(=N)N)C(=O)N[C@H](C(=O)N[C@@H](CC(C)C)C(=O)N[C@@H](C)C(=O)N[C@@H](CCCNC(=N)N)C(=O)N[C@H](C(N)=O)C(C)C)[C@@H](C)CC)[C@@H](C)O)[C@@H](C)O)C(=O)O` [Compound 35] (H-IVLSLDVPIGLLQILLEQEKQEKEKQK([γGlu-Palmitoyl])ATTNARILARV-NH2) it is 404 nM.
